For 22 compounds, inhibition, fold change (FC) and IC50 results are on record in ChEMBL document CHEMBL4033638, “Effect of natural and semi-synthetic cadinanes from Heterotheca inuloides on NF-κB, Nrf2 and STAT3 signaling pathways and evaluation of their in vitro cytotoxicity in human cancer cell lines” (Bioorg Med Chem, 2017).

Assay [1] in a line: Inhibition of TNFalpha-stimulated NFkappaB (unknown origin) expressed in mouse NIH-3T3-KBFLuc cells at 50 uM after 6 hrs by luciferase reporter gene assay relative to control. The format is cell-based. As to conditions: Homo sapiens. On the technique in general: A reporter such as luciferase makes a cellular process visible.
Assay [2] concerns the target T1, Nuclear factor erythroid 2-related factor 2 (Homo sapiens) (UniProt Q16236).
T1 sequence (whole entry): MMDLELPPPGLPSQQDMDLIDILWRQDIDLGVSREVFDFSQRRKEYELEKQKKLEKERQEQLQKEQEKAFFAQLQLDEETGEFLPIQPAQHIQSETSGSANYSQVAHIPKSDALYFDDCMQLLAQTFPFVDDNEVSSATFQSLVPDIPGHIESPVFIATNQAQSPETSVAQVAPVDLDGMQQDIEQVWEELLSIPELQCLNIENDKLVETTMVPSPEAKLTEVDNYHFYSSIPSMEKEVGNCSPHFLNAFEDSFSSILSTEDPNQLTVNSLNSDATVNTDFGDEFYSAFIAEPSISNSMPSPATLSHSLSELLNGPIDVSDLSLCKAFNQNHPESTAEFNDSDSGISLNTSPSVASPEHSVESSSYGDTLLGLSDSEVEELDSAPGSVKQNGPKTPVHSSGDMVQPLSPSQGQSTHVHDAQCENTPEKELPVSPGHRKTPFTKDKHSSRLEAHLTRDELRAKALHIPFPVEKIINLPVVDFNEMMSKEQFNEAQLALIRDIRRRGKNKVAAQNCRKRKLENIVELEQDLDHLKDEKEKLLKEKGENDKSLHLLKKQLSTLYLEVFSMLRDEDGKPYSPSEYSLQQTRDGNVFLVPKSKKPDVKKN
In words: Activation of Nrf2 in human HaCaT-ARE-Luc cells at 50 uM after 6 hrs by luciferase reporter gene assay relative to control. The format is cell-based.

Assay [3] deals with Signal transducer and activator of transcription 3 (Homo sapiens) (UniProt P40763). In words: Inhibition of IFNgamma-stimulated STAT3 (unknown origin) activation expressed in human HeLa cells at 50 uM after 6 hrs by luciferase reporter gene assay relative to control. In kind it is cell-based.
In a further assay the test system is U-251. As to the kind of experiment: Antiproliferative activity against human U251 cells at 50 uM after 48 hrs by sulforhodamine B assay relative to control. The format is functional. As to conditions: for inhibition at 50 µM: U-251, 48 h. On the technique in general: In SRB staining, fixed cells bind dye roughly in proportion to their protein.
The subject of assay [4] is PC-3. In words: Antiproliferative activity against human PC3 cells at 50 uM after 48 hrs by sulforhodamine B assay relative to control. The format is functional. As to conditions: PC-3, 48 h.
A further assay deals with K562. As to the kind of experiment: Antiproliferative activity against human K562 cells at 50 uM after 48 hrs by sulforhodamine B assay relative to control. The format is functional. The settings on record: for inhibition at 50 µM: K562, 48 h.
A further assay has as its system HCT-15. In words: Antiproliferative activity against human HCT15 cells at 50 uM after 48 hrs by sulforhodamine B assay relative to control. In kind it is functional. As to conditions: for inhibition at 50 µM: HCT-15, 48 h.
A further assay concerns MCF7. As to the kind of experiment: Antiproliferative activity against human MCF7 cells at 50 uM after 48 hrs by sulforhodamine B assay relative to control. In kind it is functional. The settings on record: MCF7, 48 h.
A further assay deals with SK-LU-1. In words: Antiproliferative activity against human SK-LU-1 cells at 50 uM after 48 hrs by sulforhodamine B assay relative to control. The format is functional. As to conditions: for inhibition at 50 µM: SK-LU-1, 48 h.
Assay [5] deals with PC-3. In words: Antiproliferative activity against human PC3 cells after 48 hrs by sulforhodamine B assay. In kind it is functional, cell-based. The settings on record: PC-3, 48 h.

Active and inactive are the calls of the source. No cut-off for these calls is given here.

Chain of Signal transducer and activator of transcription 3 (Homo sapiens) (P40763 whole entry): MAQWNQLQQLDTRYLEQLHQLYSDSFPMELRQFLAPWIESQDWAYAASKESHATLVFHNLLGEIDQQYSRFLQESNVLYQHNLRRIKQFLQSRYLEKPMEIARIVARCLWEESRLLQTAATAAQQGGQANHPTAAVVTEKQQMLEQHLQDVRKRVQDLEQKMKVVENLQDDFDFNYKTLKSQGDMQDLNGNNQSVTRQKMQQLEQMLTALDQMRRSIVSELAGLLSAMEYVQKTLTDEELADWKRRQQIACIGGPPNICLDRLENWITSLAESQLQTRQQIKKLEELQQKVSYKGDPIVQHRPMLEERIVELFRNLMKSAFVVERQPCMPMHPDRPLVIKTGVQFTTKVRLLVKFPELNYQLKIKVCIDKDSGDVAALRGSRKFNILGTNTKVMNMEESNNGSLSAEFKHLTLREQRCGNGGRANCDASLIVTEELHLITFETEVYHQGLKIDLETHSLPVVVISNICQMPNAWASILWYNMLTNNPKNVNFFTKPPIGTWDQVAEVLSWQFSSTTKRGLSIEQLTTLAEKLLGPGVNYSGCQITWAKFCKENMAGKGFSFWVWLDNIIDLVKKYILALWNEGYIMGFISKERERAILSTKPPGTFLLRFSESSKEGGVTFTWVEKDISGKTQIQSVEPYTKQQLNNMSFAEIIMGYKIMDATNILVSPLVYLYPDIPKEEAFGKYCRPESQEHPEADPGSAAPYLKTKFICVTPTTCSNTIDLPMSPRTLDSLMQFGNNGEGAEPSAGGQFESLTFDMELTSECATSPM

The term inhibition denotes the drop in the measured response relative to a control, in per cent. Turning to `CC1=CC[C@H](C(C)C)c2cc(C)c(OC(=O)c3ccc(Cl)cc3)cc21`, the inhibition stood at 36.1% in assay [1] and 2.7% in [3]. The compound also displayed a fold change (FC) in [2] of 1.3. Further, the inhibition at 50 µM in the assay with U-251 stood at 25.6%; with PC-3 [4], 34.1%; with K562, 58.9%; in the assay on HCT-15, 47.4%; with MCF7 it was 79.7%; in the assay on SK-LU-1, 17.4%.
Regarding `Cc1ccc2c(c1)C(=O)C(C(C)C)=C[C@@]2(C)O`, the inhibition in assay [1] stood at 11.1%; in assay [3], 2.4%. Besides, the fold change (FC) in assay [2] worked out at 1.7.
For `COc1cccc(C(=O)Oc2cc3c(C)ccc(C(C)C)c3cc2C)c1`, the inhibition worked out at 2.8% in [1] and 0.8% in [3]. This compound also yielded a fold change (FC) in assay [2] of 1.5. The inhibition result in the assay with U-251 was “inactive”. Further, the inhibition at 50 µM in the assay on PC-3 [4] turned out to be 12.5%; in the assay with K562, 14.2%; in the assay with HCT-15, 35.2%; in the assay with MCF7 it was 31.8%; with SK-LU-1, 30.6%.
`Cc1cc2c(C(C)C)ccc(C=O)c2cc1O`: the inhibition in assay [1] turned out to be 40.1%; in assay [3], 3.5%. This compound also registered a fold change (FC) in assay [2] of 1.6.
Taken in the same sequence, the figures for `COc1c(C(C)C)cc(C)c2ccc(C)cc12` were 26.5%, 0.9% and 1.9.
As to `CC(C)[C@H]1CC[C@@](C)(O)c2ccc(C(=O)O)cc21`, the inhibition in assay [1] came out at 6.7%; in assay [3], 3.8%. Further, the fold change (FC) in [2] was found to be 1.7.
Taken in the same sequence, the figures for `CC1=C2CCC(C(=O)O)=C[C@@H]2[C@@H](C(C)C)CC1` were 5.9%, 3.8% and 1.4.
In the case of `CC1=CC[C@H](C(C)C)c2cc(C)c(OC(=O)c3ccccc3)cc21`, the inhibition in assay [1] worked out at 47.2%; in [3] it was 2.4%. In [2], the fold change (FC) came to 6.6. For the same compound, the inhibition at 50 µM with U-251 is 25.8%; with PC-3 [4], 22.5%; with HCT-15, 49.5%; in the assay on MCF7, 60.7%; with SK-LU-1 it was 37%. Moreover, the inhibition result in the assay with K562 is “inactive”.
Turning to `CC1=CC[C@H](C(C)C)c2cc(C)c(OC(=O)c3cccc(C(F)(F)F)c3)cc21`, the inhibition was found to be 4.4% in [1] and 1.7% in assay [3]. In assay [2], this compound had a fold change (FC) of 1.9. Also, the inhibition at 50 µM is 29.3% in the assay on U-251; 25.4% with PC-3 [4]; 45.5% in the assay on K562; 15% with HCT-15; 86% in the assay with MCF7; 18.3% in the assay with SK-LU-1.
Consider `CC1=C[C@](O)(C(C)C)C(=O)c2cc(C)c(O)cc21`, for which the figures for the inhibition in assay [1] and in assay [3] were 28.8% and 2.2%, respectively. In addition, the fold change (FC) in [2] came to 1.3.
As usually defined, the IC50 is the concentration that gives 50% inhibition. Turning to `COc1ccc(C(=O)Oc2cc3c(cc2C)[C@@H](C(C)C)CC=C3C)cc1`, the inhibition in assay [1] stood at 49.2%; in assay [3], 1.8%. In assay [2], this compound displayed a fold change (FC) of 1.9. Further, the inhibition at 50 µM with U-251 is 37%; with PC-3 [4] it was 60.6%; with K562, 46.5%; in the assay with HCT-15, 30.8%; in the assay on MCF7, 80.1%; in the assay with SK-LU-1 it was 18.6%. This compound also displayed an IC50 in the assay with PC-3 [5] of 32.2 µM.
As to `CC1=CC[C@H](C(C)C)c2cc(C)c(OC(=O)c3cccc(C)c3)cc21`, the figures for the inhibition in assay [1] and in assay [3] were 44.2% and 2.3%, respectively. In assay [2], the fold change (FC) worked out at 1.7. Further, the inhibition at 50 µM in the assay on U-251 came to 16.8%; in the assay on PC-3 [4], 38.6%; in the assay with HCT-15 it was 5.3%; in the assay with MCF7, 54.9%. In addition, the inhibition entry in the assay with K562 and in the assay with SK-LU-1 was “inactive” throughout.
For the compound `Cc1cc2c(C(C)C)ccc(C)c2cc1OC(=O)c1ccccc1`, the values for the inhibition in assay [1] and in assay [3] were 34.5% and 0.5%, respectively. This compound registered a fold change (FC) in assay [2] of 1.9. Also, the inhibition at 50 µM came out at 41.5% with U-251; 21.2% in the assay with PC-3 [4]; 44.3% in the assay on K562; 72% in the assay with HCT-15; 51% with MCF7; 63% with SK-LU-1.
For `CC1=CC[C@H](C(C)C)[C@H]2C=C(C(=O)O)CC=C12`, the inhibition in assay [1] was 12.3%; in assay [3], 3.6%. Further, the fold change (FC) in [2] was determined as 1.9.
For `CC1=CC[C@H](C(C)C)c2cc(C(=O)O)ccc21`, the results for the inhibition in [1] and in assay [3] were 7.3% and 2.9%, respectively. In [2], this compound gave a fold change (FC) of 1.8.
Consider `Cc1cc2c(C(C)C)ccc(C)c2cc1OC(=O)c1cccc(C(F)(F)F)c1`, for which the inhibition in [1] turned out to be 4.8%; in [3], 2.7%. Moreover, the fold change (FC) in assay [2] came to 1.9. The inhibition result in the assay with U-251, in the assay with K562 and with HCT-15 was “inactive” throughout. Besides, the inhibition at 50 µM with PC-3 [4] was found to be 26.7%; in the assay on MCF7 it was 41.5%; in the assay with SK-LU-1, 17.3%.
Turning to `COc1cccc(C(=O)Oc2cc3c(cc2C)[C@@H](C(C)C)CC=C3C)c1`, the inhibition came out at 41.2% in assay [1] and 3.3% in assay [3]. Further, in assay [2], the fold change (FC) stood at 1.6. For the same compound, the inhibition entry in the assay with U-251, in the assay with K562 and with HCT-15 was “inactive” each time. Further, the results for the inhibition at 50 µM in the assay with PC-3 [4], in the assay on MCF7 and in the assay on SK-LU-1 were 16.3%, 11.9% and 24.2%, respectively.
As for `CC1=CC[C@H](C(C)C)c2cc(C)c(OC(=O)c3cccc([N+](=O)[O-])c3)cc21`, the inhibition in assay [1] was determined as 3.5%; in [3] it was 3.2%. Moreover, the fold change (FC) in assay [2] was 1.5. The inhibition at 50 µM is 44% with U-251; 36.9% in the assay on PC-3 [4]; 15.9% with K562; 45.9% in the assay on HCT-15; 29.3% with MCF7; 60.4% in the assay with SK-LU-1.
Turning to `Cc1cc2c(C(C)C)ccc(C)c2cc1OC(=O)c1cccc(Cl)c1`, the values for the inhibition in assay [1] and in assay [3] were 25.6% and 1.8%, respectively. Besides, the fold change (FC) in assay [2] amounted to 1.7. Moreover, the inhibition at 50 µM in the assay on U-251 was 0.8%; with PC-3 [4], 4.2%; with MCF7 it was 11.4%; with SK-LU-1, 11.6%. Also, the inhibition entry in the assay on K562 and in the assay with HCT-15 was “inactive” in each case.
Take `CC1=CC[C@H](C(C)C)c2cc(C)c(OC(=O)c3ccc(C(F)(F)F)cc3)cc21`: the inhibition in [1] is 25.4%; in [3], 2.5%. The compound further came in with a fold change (FC) in assay [2] of 1.6. Further, the inhibition at 50 µM with U-251 came out at 14.7%; in the assay on PC-3 [4] it was 12.3%; in the assay with K562, 9%; in the assay with HCT-15 it was 6.4%; with MCF7, 40.4%. The inhibition result with SK-LU-1 was “inactive”.
For the compound `CC1=CC[C@H](C(C)C)c2cc(C)c(OC(=O)c3cccc(Cl)c3)cc21`, the inhibition stood at 22.5% in assay [1] and 1.5% in assay [3]. The fold change (FC) in assay [2] was determined as 1.4. For the same compound, the inhibition at 50 µM with U-251 is 0.9%; in the assay on PC-3 [4], 23.4%; in the assay with HCT-15, 5.3%; in the assay with MCF7, 40.4%; in the assay on SK-LU-1, 30.6%. The inhibition entry with K562 is “inactive”.
Take `COc1ccc(C(=O)Oc2cc3c(C)ccc(C(C)C)c3cc2C)cc1`: the inhibition in [1] was 26.9%; in [3] it was 2.5%. In assay [2], this compound gave a fold change (FC) of 1.3. The inhibition at 50 µM came out at 42.6% with U-251; 10.4% in the assay with PC-3 [4]; 88.6% in the assay on K562; 84% in the assay on HCT-15; 93.4% in the assay on MCF7; 32.8% in the assay on SK-LU-1.
